The source of these data is PMC11597202, “Novel Thiazole-Fused [4,5-g] or [5,4-g]Quinazolin-8-ones and Their Quinazoline Analogues: Synthesis and Biological Evaluation” (Pharmaceuticals, 2024).

The IC50 is the concentration that gives 50% inhibition. As usually defined, the melting point is the temperature, or range, at which the solid turns liquid.

A value given as a limit tells only on which side of the number the result lay.

Series [1] in a line: In vitro cytotoxic assay, HCT-116. The class given is cell-based. The conditions noted are these: human, HCT-116 cells (colon cancer cell line). The procedure:
(§1) Skin normal fibroblastic cells were purchased from Lonza (Basel, Switzerland). […] All culture media were supplemented by 10% of FBS, 1% of penicillin–streptomycin and 2 mM glutamine.
(§2) Chemicals were solubilized in DMSO at a concentration of 10 mM (stock solution) and diluted in culture medium to the desired final concentrations. […] Cells were plated in 96-well plates (4000 cells/well). Twenty-four hours after seeding, the cells were exposed to chemicals. […] Image acquisition and analysis were performed using a Cellomics ArrayScan VTI/HCS Reader (ThermoScientific, Les Ulis, France). The survival percentages were calculated as the percentage of cell number after compound treatment over cell number after DMSO treatment. The relative IC50 values were calculated using the curve fitting XLfit 5.5.0.5 (idbs) integrated in Microsoft Excel as an add-on.
(§3) 4.3.1. Cell culture. Skin normal fibroblastic cells are purchased from Lonza (Basel, Switzerland). Huh7- […]
(§4) from ATCC (American Type Culture Collection). […]
(§5) supplemented by 10% of FBS, 1% of penicillin-streptomycin and 2 mM glutamine.
(§6) 4.3.2. Cytotoxic assay. Chemicals were solubilized in DMSO at a concentration of 10 mM (stock solution) and diluted in culture medium to the desired final concentrations. The dose effect cytotoxic assays (IC50 determination) were performed by increasing the concentrations of each chemical (final well […]
(§7) Cells were plated in 96-well plates
(§8) (4000 cells/well). Twenty-four hours after seeding, cells were exposed to chemicals. After 48h of treatment, cells were washed in PBS and fixed in cooled 90% ethanol/5% acetic acid for 20 min and the […]
(§9) Image acquisition and analysis were performed using a Cellomics ArrayScan VTI/HCS Reader (ThermoScientific). The survival percentages were calculated as the percentage of cell number after compound treatment over cell number after DMSO treatment. The relative IC50 were calculated using the curve fitting XLfit 5.5.0.5 (idbs) integrated in Microsoft Excel as an add-on. The 4 Parameter Logistic Model or Sigmoidal Dose-Response Model describing the sigmoid-shaped response pattern was used (fit = (A+[(B-A)/(1+[(C/x)^D])]) where fit is the response and X is the tested concentration of the compound. The lower asymptote is A (also referred to as the bottom of the curve or lower plateau or the min) and the upper asymptote is B (also referred to as the top of the curve or upper plateau or the max). The slope of the linear part of the curve is described by the factor D. The parameter C is the concentration corresponding to the response midway between A and B. C is called “relative IC50” because it refers to the maximum response obtained by a […]
(§10) The results are represented as the mean ± standard error (SE) calculated from at least three independent experiments.

Series [2] in a line: In vitro cytotoxic assay, MDA-MB-468. The conditions noted are these: human, MDA-MB-468 cells (breast cancer cell line); read-out: In vitro cytotoxic activity IC50, MBA-MB4-68. Type of series: cell-based. The protocol: as §1, §2, §3, §4, §5, §6, §7, §8, §9, §10
Series [3] can be described thus: In vitro cytotoxic assay, MCF-7. Note: 0.1-25 µM tested. The class given is cell-based. The conditions noted are these: human, MCF-7 cells (breast cancer cell line). The procedure: as §1, §2, §3, §4, §5, §6, §7, §8, §9, §10
The nature of series [4]: In vitro cytotoxic assay, Caco-2. Note: 0.1-25 µM tested. Type of series: cell-based. Particulars: human, Caco-2 cells (colon cancer cell line). The procedure: as §1, §2, §3, §4, §5, §6, §7, §8, §9, §10
Series [5] in a line: In vitro cytotoxic assay, PC-3. Note: 0.1-25 µM tested. The class given is cell-based. The conditions noted are these: human, PC-3 cells (prostate cancer cell line). The procedure: as §1, §2, §3, §4, §5, §6, §7, §8, §9, §10
Series [6] is described as follows: In vitro cytotoxic assay, Huh7-D12. Type of series: cell-based. The conditions noted are these: human, Huh7-D12 cells (liver cancer cell line). The procedure:
as §1, §2, §3, §4, §5, §6, §7, §8, §9, §10

A short description of series [7]: In vitro cytotoxic assay, MDA-MB-231. Note: 0.1-25 µM tested. Particulars: human, MDA-MB-231 cells (breast cancer cell line); read-out: In vitro cytotoxic activity IC50, MBA-MB-231. The class given is cell-based. The procedure:
as §1, §2, §3, §4, §5, §6, §7, §8, §9, §10

The next series relates to seven tumor cell lines. The experiment in a line: In vitro cytotoxic assay, whole panel of cancer cell lines. The class given is cell-based, human. The conditions noted are these: Homo sapiens; lowest to highest IC50 among the seven cancer cell lines, 48 h; read-out: IC50 span over the cancer cell lines. The procedure: as §1, §2, §3, §4, §5, §6, §7, §8, §9, §10

For the compound `CC(=O)O[C@H]1C(=O)[C@@]2(C)[C@H]([C@H](OC(=O)c3ccccc3)[C@]3(O)C[C@H](OC(=O)[C@H](O)[C@@H](NC(=O)c4ccccc4)c4ccccc4)C(C)=C1C3(C)C)[C@]1(OC(C)=O)CO[C@@H]1C[C@@H]2O` [Taxol, reference compound], the IC50 at 48 h in series [1] was determined as 0.003 µM; in series [2], 0.003 µM; in series [3], 0.006 µM; in [4] it was 0.02 µM; in [5] it was 0.004 µM; in series [6], 0.016 µM. The IC50 at 48 h in series [7] came to 0.01 µM.
`COc1ccc(Nc2ncnc3cc4sc(C#N)nc4cc23)c(F)c1` [Compound 14a, 8-[(2-Fluoro-4-methoxyphenyl)amino]thiazolo[4,5-g]quinazoline-2-carbonitrile] displayed a melting point of 259 to 260 °C.
On to `N#Cc1nc2cc3ncn(Cc4ccccc4)c(=O)c3cc2s1` [Compound 5b, 7-Benzyl-8-oxo-7,8-dihydrothiazolo[5,4-g]quinazoline-2-carbonitrile], for which the melting point was in the range of 217 to 218 °C. Moreover, in [1], the midpoint of inhibition, the IC50 at 48 h, lay at 2 µM. In addition, in [2], the IC50 at 48 h came out at 1 µM. This compound showed an IC50 at 48 h in series [3] of 2 µM. In series [4], this compound yielded a 50% inhibitory concentration (IC50) at 48 h of 1 µM. Besides, the concentration for half-maximal inhibition (IC50) at 48 h in series [5] came to 2 µM. For the same compound, in series [6], the concentration for half-maximal inhibition (IC50) at 48 h was determined as 3 µM. Further, the IC50 at 48 h in [7] amounted to 3 µM. Also, the half-inhibitory concentration (IC50) in the series with seven tumor cell lines lay in the range of 1 to 3 µM.
Regarding `COc1cccc2c1C(=O)c1c(O)c3c(c(O)c1C2=O)C[C@@](O)(C(=O)CO)C[C@@H]3O[C@H]1C[C@H](N)[C@H](O)[C@H](C)O1` [Doxo, Doxorubicin, reference compound], the IC50 at 48 h in series [1] was determined as 0.05 µM; in [2], 0.04 µM; in series [3], 0.05 µM; in series [4], 0.03 µM; in series [5] it was 0.08 µM; in series [6], 0.03 µM. In series [7], the IC50 at 48 h was 0.02 µM.
Compound `COc1ccc(Nc2ncnc3cc4nc(C#N)sc4cc23)c(F)c1` [Compound 14b, 8-[(2-Fluoro-4-methoxyphenyl)amino]thiazolo[5,4-g]quinazoline-2-carbonitrile] gave a melting point of 255 to 256 °C.
On to `N#Cc1nc2c(ccc3c(=O)n(Cc4ccccc4)cnc32)s1` [Compound 5c, 7-Benzyl-6-oxo-6,7-dihydrothiazolo[5,4-h]quinazoline-2-carbonitrile], for which the melting point lay within 273 to 274 °C. The compound also yielded an IC50 at 48 h in series [1] of 4 µM. Further, the IC50 at 48 h in series [2] worked out at 10 µM. Besides, the IC50 at 48 h in series [3] was determined as 16 µM. The same compound displayed an IC50 at 48 h in series [4] of 11 µM. Moreover, the IC50 at 48 h in series [5] is 12 µM. Also, in series [6], half-maximal inhibition (IC50 at 48 h) was put at 17 µM. Also, the IC50 at 48 h in series [7] was 24 µM. In the series on seven tumor cell lines, the IC50 was in the range of 4 to 24 µM.
With `N#Cc1nc2ccc3c(=O)n(Cc4ccccc4)cnc3c2s1` [Compound 5d, 7-Benzyl-6-oxo-6,7-dihydrothiazolo[4,5-h]quinazoline-2-carbonitrile], the IC50 at 48 h in series [1] is 7 µM; in [2], 11 µM; in series [3] it was 12 µM; in series [4], 9 µM; in series [5] it was 11 µM; in series [6], 18 µM. In series [7], the IC50 at 48 h turned out to be 14 µM. Further, the IC50 with seven tumor cell lines lay within 7 to 18 µM.
For the compound `N#Cc1nc2cc3c(=O)n(Cc4ccccc4)cnc3cc2s1` [Compound 5a, 7-Benzyl-8-oxo-7,8-dihydrothiazolo[4,5-g]quinazoline-2-carbonitrile], the melting point was 237 to 238 °C. The same compound had an IC50 at 48 h in [1] of 7 µM. The IC50 at 48 h in series [2] came to 11 µM. The same compound showed an IC50 at 48 h in series [3] of 8 µM. Also, 10 µM corresponded to half-maximal inhibition in series [4] (IC50 at 48 h). In series [5], this compound registered an IC50 at 48 h of 9 µM. The compound also returned a half-inhibitory concentration (IC50) at 48 h in series [6] of more than 25 µM. Further, the IC50 at 48 h in series [7] is more than 25 µM. For the same compound, the IC50 with seven tumor cell lines was 7 to 62 µM.
